System: primary human endothelial cells expressing luciferase under the control of the KLF2 promoter
Experiment: KLF2 Induction Cell Based Bioassay (luciferase reporter)
Conditions: Homo sapiens, Endothelial cell, 24 h, KLF2 promoter luciferase, 24 hours, 11-point concentration response; read-out: Activity Range (EC50)
Source text: In endothelial cell culture media, a stock of the highest working concentration was made at no more than 1% DMSO vehicle. The working stock was then serially diluted 1:2 to make an 11-point concentration response curve. Included in the 96-well plate were 2 reference compounds with known potencies. A DMSO column was included in the 96-well plate at the highest percent vehicle of the working stocks. The 96-well cell culture plate of primary human endothelial cells expressing luciferase under the control of the KLF2 promoter was dosed with 200 μL per well of the dilution series as well as the DMSO control column. The assay plate was incubated at 37° C. for 24 hours. The supernatant was collected at 24 hours.
20 μL of the supernatant was then placed in a 384-well plate with optical duplicates. The corners of the plate received 20 μL of the Gaussia Luciferase Enzyme positive control, as well as 20 μL of the 50 μM Coelenterizine substrate. The plate read is then calibrated using the control, and read using a Molecular Devices SpectraMax iD5, providing luminescence in relative light units (RLU). The plate reader injected 20 μL of the 50 μM Coelenterizine substrate immediately before taking the RLU measurement for each well.
The sample signals were then normalized to the average signal of the DMSO column, as well as to the maximum signal of one of the reference compounds, as shown in the equations below: […]
The EC50 of each compound is then defined as when the concentration response curve passes 0.5.

Compound	EC50 [nM]
CC=C1CC(N2C(=O)c3oc4ccccc4c3OCC2(C)C(=O)NCc2ccccc2OC)C1 (racemic) [Example 15]	501 to 5000
COCCN1C(=O)c2oc3cc(C(=O)NC4(C)COC4)ccc3c2OCC1(C)C(=O)NCc1c(F)cccc1OC (racemic) [Example 81]	51 to 500
COc1cccc(F)c1CNC(=O)C1(C)COc2c(oc3ccc(Cl)cc23)C(=O)N1CC(=O)N(C)C (racemic) [Example 106, 9-chloro-4-(2-(dimethylamino)-2-oxoethyl)-N-(2-fluoro-6-methoxybenzyl)-3-methyl-5-oxo-2,3,4,5-tetrahydrobenzofuro[2,3-f][1,4]oxazepine-3-carboxamide]	51 to 500
COc1ccccc1CNC(=O)C1(C)COc2c(oc3ccccc23)C(=O)N1CC(C)(C)OC (stereo not drawn) [Example 3]	51 to 500
COc1ccccc1CNC(=O)C1(C)COc2c(oc3ccccc23)C(=O)N1CC1(O)CCC1 (stereo not drawn) [Example 11]	501 to 5000
C=CCN1C(=O)c2oc3ccccc3c2OCC1(C)C(=O)NCc1ccccc1OC (stereo not drawn) [Example 12]	501 to 5000
COc1ccccc1CNC(=O)C1(C)COc2c(oc3ccccc23)C(=O)N1C1CCC1 (stereo not drawn) [Example 13]	501 to 5000
COCCN1C(=O)c2oc3ccccc3c2OCC1(C)C(=O)NCc1c(OC)ccc2cccnc12 (stereo not drawn) [Example 20]	501 to 5000
COCCN1C(=O)c2oc3ccccc3c2OCC1(C)C(=O)NCc1c(OC)ccc(F)c1F (stereo not drawn) [Example 21]	501 to 5000
COCCN1C(=O)c2oc3ccccc3c2OCC1(C)C(=O)NCc1cc(Cl)ccc1OC (stereo not drawn) [Example 23]	501 to 5000
COCCN1C(=O)c2oc3ccccc3c2OCC1(C)C(=O)NCc1c(Cl)cccc1OC (stereo not drawn) [Example 24]	501 to 5000
COCCN1C(=O)c2oc3ccccc3c2OCC1(C)C(=O)NCc1ccc(Cl)cc1OC (stereo not drawn) [Example 25]	501 to 5000
COCCN1C(=O)c2oc3ccccc3c2OCC1(C)C(=O)NCc1c(OC)cccc1C(=O)OC (stereo not drawn) [Example 27]	501 to 5000
COCCN1C(=O)c2oc3ccccc3c2OCC1(C)C(=O)NCc1c(OC)cccc1OC (stereo not drawn) [Example 33]	501 to 5000
COCCN1C(=O)c2oc3ccccc3c2OCC1(C)C(=O)NCc1cc(C)ccc1OC (stereo not drawn) [Example 34]	501 to 5000
COCCN1C(=O)c2oc3ccccc3c2OCC1(C)C(=O)NCc1cc(OC)ccc1OC (stereo not drawn) [Example 35]	501 to 5000

Compound	EC50 [nM]
[2H]C([2H])([2H])Oc1ccccc1CNC(=O)C1(C)COc2c(oc3ccccc23)C(=O)N1CCOC (stereo not drawn) [Example 36]	501 to 5000
COCCN1C(=O)c2oc3ccccc3c2OCC1(C)C(=O)NCc1c(F)cccc1OC (stereo not drawn) [Example 37]	501 to 5000
COCCN1C(=O)c2oc3ccccc3c2OCC1(C)C(=O)NCc1cc(F)ccc1OC (stereo not drawn) [Example 38]	501 to 5000
COCCN1C(=O)c2oc3ccccc3c2OCC1(C)C(=O)NCc1ccc(F)cc1OC (stereo not drawn) [Example 39]	501 to 5000
COCCN1C(=O)c2oc3ccccc3c2OC[C@]1(C)C(=O)NCc1ccccc1OC [Example 40]	501 to 5000
COCCN1C(=O)c2oc3ccccc3c2OCC1(C)C(=O)NCc1ccc2ccccc2c1OC (stereo not drawn) [Example 41]	501 to 5000
COCCN1C(=O)c2oc3ccccc3c2OCC1(C)C(=O)NCc1c(Cl)cc(Cl)cc1OC (stereo not drawn) [Example 44]	501 to 5000
COCCN1C(=O)c2oc3ccccc3c2OCC1(C)C(=O)NCc1cc(F)c(Cl)cc1OC (stereo not drawn) [Example 45]	501 to 5000
COCCN1C(=O)c2oc3ccccc3c2OCC1(C)C(=O)NCc1c(OC)ccc(Cl)c1F (stereo not drawn) [Example 46]	501 to 5000
COCCN1C(=O)c2oc3ccccc3c2OCC1(C)C(=O)NCc1c(Cl)cc(F)cc1OC (stereo not drawn) [Example 48]	501 to 5000
COCCN1C(=O)c2oc3cc(C(=O)NC4CCC4)ccc3c2OC[C@]1(C)C(=O)NCc1ccccc1OC [Example 50, (R)—N8-cyclobutyl-N3-(2-methoxybenzyl)-4-(2-methoxyethyl)-3-methyl-5-oxo-2,3,4,5-tetrahydrobenzofuro[2,3-f][1,4]oxazepine-3,8-dicarboxamide]	51 to 500
COc1cccnc1CNC(=O)C1(C)COc2c(oc3cc(C(=O)NC4(C)COC4)ccc23)C(=O)N1CC1CC1 (stereo not drawn) [Example 52]	51 to 500
COc1cccnc1CNC(=O)C1(C)COc2c(oc3cc(C(=O)NC4CCC4)ccc23)C(=O)N1[C@H]1C[C@@H](OC)C1 (stereo partly drawn) [Example 54]	51 to 500
COc1cccc(C#N)c1CNC(=O)C1(C)COc2c(oc3cc(C(=O)NC4(C)COC4)ccc23)C(=O)N1[C@H]1C[C@@H](OC)C1 (stereo partly drawn) [Example 55]	51 to 500
COc1cccc(C#N)c1CNC(=O)C1(C)COc2c(oc3cc(C(=O)NC4CCC4)ccc23)C(=O)N1[C@H]1C[C@@H](OC)C1 (stereo partly drawn) [Example 56]	51 to 500

Second part, the molecule after the results:

EC50 [nM]	Compound
51 to 500	COc1cccc(F)c1CNC(=O)[C@@]1(C)COc2c(oc3ccc(Cl)cc23)C(=O)N1CC(=O)N(C)C (single isomer, unassigned) [Example 107]
501 to 5000	COc1ccccc1CNC(=O)C1(C)COc2c(oc3ccccc23)C(=O)N1CC1(F)CCC1 (stereo not drawn) [Example 2]
501 to 5000	CCOC(=O)CN1C(=O)c2oc3ccccc3c2OCC1(C)C(=O)NCc1ccccc1OC (stereo not drawn) [Example 4]
501 to 5000	C#CCCN1C(=O)c2oc3ccccc3c2OC[C@]1(C)C(=O)NCc1ccccc1OC [Example 6]
501 to 5000	C/C=C/CN1C(=O)c2oc3ccccc3c2OCC1(C)C(=O)NCc1ccccc1OC (stereo not drawn) [Example 9]
501 to 5000	COc1ccccc1CNC(=O)C1(C)COc2c(oc3ccccc23)C(=O)N1CC1(OC)CCC1 (stereo not drawn) [Example 10]
51 to 500	COc1ccccc1CNC(=O)C1(C)COc2c(oc3ccccc23)C(=O)N1C1CC2(CC2)C1 (stereo not drawn) [Example 14]
501 to 5000	COCCN1C(=O)c2oc3ccccc3c2OCC1(C)C(=O)NCc1c(F)cc(Cl)cc1OC (stereo not drawn) [Example 16]
501 to 5000	COCCN1C(=O)c2oc3ccccc3c2OCC1(C)C(=O)NCc1c(OC)ccc(F)c1Cl (stereo not drawn) [Example 17]
501 to 5000	COCCN1C(=O)c2oc3ccccc3c2OCC1(C)C(=O)NCc1cc2ncccc2cc1OC (stereo not drawn) [Example 18]
501 to 5000	COCCN1C(=O)c2oc3ccccc3c2OCC1(C)C(=O)NCc1c(OC)ccc2cnccc12 (stereo not drawn) [Example 19]
501 to 5000	COCCN1C(=O)c2oc3ccccc3c2OCC1(C)C(=O)NCc1c(F)cc(F)cc1OC (stereo not drawn) [Example 22]
501 to 5000	COCCN1C(=O)c2oc3ccccc3c2OCC1(C)C(=O)NCc1c(OC)cccc1C(N)=O (stereo not drawn) [Example 26]
501 to 5000	COCCN1C(=O)c2oc3ccccc3c2OCC1(C)C(=O)NCc1c(C#N)cccc1OC (stereo not drawn) [Example 28]
501 to 5000	COCCN1C(=O)c2oc3ccccc3c2OCC1(C)C(=O)NCc1cc(Cl)c(F)cc1OC (stereo not drawn) [Example 29]
501 to 5000	COCCN1C(=O)c2oc3ccccc3c2OCC1(C)C(=O)NCc1c(OC)ccc2ccncc12 (stereo not drawn) [Example 30]
501 to 5000	COCCN1C(=O)c2oc3ccccc3c2OCC1(C)C(=O)NCc1cc2ccccc2cc1OC (stereo not drawn) [Example 31]
501 to 5000	COCCN1C(=O)c2oc3ccccc3c2OCC1(C)C(=O)NCc1c(OC)ccc2ccccc12 (stereo not drawn) [Example 32]
501 to 5000	COCCN1C(=O)c2oc3ccccc3c2OCC1(C)C(=O)NCc1ccc(C)cc1OC (stereo not drawn) [Example 43]
501 to 5000	COCCN1C(=O)c2oc3ccccc3c2OCC1(C)C(=O)NCc1ncccc1OC (stereo not drawn) [Example 47]
501 to 5000	COCCN1C(=O)c2oc3cc(C(=O)NC4CCC4)ccc3c2OC[C@@]1(C)C(=O)NCc1ccccc1OC [Example 49, (S)—N8-cyclobutyl-N3-(2-methoxybenzyl)-4-(2-methoxyethyl)-3-methyl-5-oxo-2,3,4,5-tetrahydrobenzofuro[2,3-f][1,4]oxazepine-3,8-dicarboxamide]
51 to 500	COc1cccnc1CNC(=O)C1(C)COc2c(oc3cc(C(=O)NC4CCC4)ccc23)C(=O)N1CC1CC1 (stereo not drawn) [Example 53]
51 to 500	COc1ccc(F)c(F)c1CNC(=O)C1(C)COc2c(oc3cc(C(=O)NC4CCC4)ccc23)C(=O)N1CC1CC1 (stereo not drawn) [Example 58]

Same assay, conditions: Homo sapiens, Endothelial cell, Bioactivity of stereoisomers: R isomer; read-out: Bioactivity Bucket, R

Compound	EC50 [nM]
COCCN1C(=O)c2oc3ccccc3c2OC[C@]1(C)C(=O)NCc1ccccc1OC [Example 40]	501 to 5000
COCCN1C(=O)c2oc3cc(C(=O)NC4CCC4)ccc3c2OC[C@]1(C)C(=O)NCc1ccccc1OC [Example 50, (R)—N8-cyclobutyl-N3-(2-methoxybenzyl)-4-(2-methoxyethyl)-3-methyl-5-oxo-2,3,4,5-tetrahydrobenzofuro[2,3-f][1,4]oxazepine-3,8-dicarboxamide]	≤ 50

Now from value to molecule:

EC50 [nM]	Compound
51 to 500	COc1cccc(F)c1CNC(=O)[C@@]1(C)COc2c(oc3ccc(Cl)cc23)C(=O)N1CC(=O)N(C)C (single isomer, unassigned) [Example 107]
501 to 5000	C#CCCN1C(=O)c2oc3ccccc3c2OC[C@]1(C)C(=O)NCc1ccccc1OC [Example 6]

Same assay, conditions: Homo sapiens, Endothelial cell, Bioactivity of stereoisomers: S isomer; read-out: Bioactivity Bucket, S

Compound	EC50 [nM]
COCCN1C(=O)c2oc3cc(C(=O)NC4CCC4)ccc3c2OC[C@@]1(C)C(=O)NCc1ccccc1OC [Example 49, (S)—N8-cyclobutyl-N3-(2-methoxybenzyl)-4-(2-methoxyethyl)-3-methyl-5-oxo-2,3,4,5-tetrahydrobenzofuro[2,3-f][1,4]oxazepine-3,8-dicarboxamide]	501 to 5000

Same assay, conditions: Homo sapiens, Endothelial cell, Bioactivity of stereoisomers: racemate; read-out: Bioactivity Bucket, Racemate

Compound	EC50 [nM]
C#CCCN1C(=O)c2oc3ccccc3c2OCC1(C)C(=O)NCc1ccccc1OC (racemic) [Example 5]	501 to 5000
CC=C1CC(N2C(=O)c3oc4ccccc4c3OCC2(C)C(=O)NCc2ccccc2OC)C1 (racemic) [Example 15]	501 to 5000
COCCN1C(=O)c2oc3cc(C(=O)NC4(C)COC4)ccc3c2OCC1(C)C(=O)NCc1c(F)cccc1OC (racemic) [Example 81]	51 to 500
COc1cccc(F)c1CNC(=O)C1(C)COc2c(oc3ccc(Cl)cc23)C(=O)N1CC(=O)N(C)C (racemic) [Example 106, 9-chloro-4-(2-(dimethylamino)-2-oxoethyl)-N-(2-fluoro-6-methoxybenzyl)-3-methyl-5-oxo-2,3,4,5-tetrahydrobenzofuro[2,3-f][1,4]oxazepine-3-carboxamide]	51 to 500

Source: patent publication US20250171460A1, “INDUCERS OF KLF2 AND METHODS OF USE THEREOF” (Riparian Pharmaceuticals, Inc., priority 2022, published 2025)
